Laboratory results as given in ChEMBL document CHEMBL1143091, “Synthesis and SAR studies of biaryloxy-substituted triazoles as antifungal agents” (2008).
In brackets after ≈: the same amount, converted by molar mass.

Experiments:
[1] = tested on: Candida albicans; assay: Antimicrobial activity against Candida albicans ATCC 76615; type: functional
[2] = tested on: Candida tropicalis; assay: Antimicrobial activity against Candida tropicalis isolates; type: functional
[3] = tested on: Cryptococcus neoformans; assay: Antimicrobial activity against Cryptococcus neoformans ATCC 32609; type: functional
[4] = tested on: Aspergillus fumigatus; assay: Antimicrobial activity against Aspergillus fumigatus isolates; type: functional
[5] = tested on: Trichophyton rubrum; assay: Antimicrobial activity against Trichophyton rubrum isolates; type: functional
[6] = tested on: Nannizzia gypsea; assay: Antimicrobial activity against Microsporum gypseum isolates; type: functional
[7] = tested on: Fonsecaea compacta; assay: Antimicrobial activity against Fonsecaea compacta isolates; type: functional
[8] = tested on: Candida parapsilosis; assay: Antimicrobial activity against Candida parapsilosis isolates; conditions: Lodderomyces parapsilosis

| Structure (SMILES) | MIC [1] [µg/mL] | MIC [2] [µg/mL] | MIC [3] [µg/mL] | MIC [4] [µg/mL] | MIC [5] [µg/mL] | MIC [6] [µg/mL] | MIC [7] [µg/mL] | MIC [8] [µg/mL] |
| --- | --- | --- | --- | --- | --- | --- | --- | --- |
| CN(C)Cc1ccc(-c2ccc(OCC(O)(Cn3cncn3)c3ccc(F)cc3F)cc2)cc1 (stereo unspecified) | 0.25 (≈ 0.538 µM) | 0.0625 (≈ 0.135 µM) | 4 (≈ 8.61 µM) | 64 (≈ 138 µM) | 0.0625 (≈ 0.135 µM) | 1 (≈ 2.15 µM) | 4 (≈ 8.61 µM) | 0.25 (≈ 0.538 µM) |
| OC(Cn1cncn1)(Cn1cncn1)c1ccc(F)cc1F [FLUCONAZOLE] | 16 (≈ 52.2 µM) | 1 (≈ 3.27 µM) | 0.25 (≈ 0.816 µM) | > 64 | 1 (≈ 3.27 µM) | 1 (≈ 3.27 µM) | 16 (≈ 52.2 µM) | 4 (≈ 13.1 µM) |
| CNCC(=O)Nc1ccc(-c2ccc(OCC(O)(Cn3cncn3)c3ccc(F)cc3F)cc2)cn1 (stereo unspecified) | 0.0625 (≈ 0.126 µM) | 0.25 (≈ 0.506 µM) | 16 (≈ 32.4 µM) | 4 (≈ 8.09 µM) | 1 (≈ 2.02 µM) | 1 (≈ 2.02 µM) | 1 (≈ 2.02 µM) | 0.25 (≈ 0.506 µM) |
| CCNc1ccc(-c2ccc(OCC(O)(Cn3cncn3)c3ccc(F)cc3F)cc2)cn1 (stereo unspecified) | 0.0625 (≈ 0.138 µM) | 0.0625 (≈ 0.138 µM) | 16 (≈ 35.4 µM) | > 64 | > 64 | > 64 | 1 (≈ 2.21 µM) | 0.0625 (≈ 0.138 µM) |
| CCC(C)n1ncn(-c2ccc(N3CCN(c4ccc(OC[C@H]5CO[C@](Cn6cncn6)(c6ccc(Cl)cc6Cl)O5)cc4)CC3)cc2)c1=O (stereo partly specified) [ITRACONAZOLE] | 0.5 (≈ 0.709 µM) | 0.25 (≈ 0.354 µM) | 1 (≈ 1.42 µM) | 1 (≈ 1.42 µM) | 0.0156 (≈ 0.0221 µM) | 0.0625 (≈ 0.0886 µM) | 0.0625 (≈ 0.0886 µM) | 0.0312 (≈ 0.0442 µM) |
| CN(C/C=C/C#CC(C)(C)C)Cc1cccc2ccccc12 [TERBINAFINE] | 1 (≈ 3.43 µM) | 0.25 (≈ 0.858 µM) | 0.25 (≈ 0.858 µM) | 0.0625 (≈ 0.214 µM) | 0.0625 (≈ 0.214 µM) | 0.0156 (≈ 0.0535 µM) | 0.0625 (≈ 0.214 µM) | 0.25 (≈ 0.858 µM) |
| O=C(CCl)Nc1ccc(-c2ccc(OCC(O)(Cn3cncn3)c3ccc(F)cc3F)cc2)cn1 (stereo unspecified) | 0.25 (≈ 0.5 µM) | 0.25 (≈ 0.5 µM) | 1 (≈ 2 µM) | > 64 | 0.25 (≈ 0.5 µM) | 1 (≈ 2 µM) | 1 (≈ 2 µM) | 0.25 (≈ 0.5 µM) |
| Oc1ccccc1CNc1ccc(-c2ccc(OCC(O)(Cn3cncn3)c3ccc(F)cc3F)cc2)cn1 (stereo unspecified) | 0.0625 (≈ 0.118 µM) | 0.0625 (≈ 0.118 µM) | > 64 | 64 (≈ 121 µM) | 0.0625 (≈ 0.118 µM) | 0.0625 (≈ 0.118 µM) | 0.25 (≈ 0.472 µM) | 0.0625 (≈ 0.118 µM) |
| OC(COc1ccc(-c2ccc(NCc3cccc(Cl)c3)nc2)cc1)(Cn1cncn1)c1ccc(F)cc1F (stereo unspecified) | 4 (≈ 7.3 µM) | 0.25 (≈ 0.456 µM) | 4 (≈ 7.3 µM) | > 64 | 4 (≈ 7.3 µM) | 1 (≈ 1.82 µM) | 4 (≈ 7.3 µM) | 0.25 (≈ 0.456 µM) |
| O=C(Nc1ccc(-c2ccc(OCC(O)(Cn3cncn3)c3ccc(F)cc3F)cc2)cn1)c1ccc(CCl)cc1 (stereo unspecified) | 0.0156 (≈ 0.0271 µM) | 0.0625 (≈ 0.109 µM) | 0.25 (≈ 0.434 µM) | > 64 | 0.25 (≈ 0.434 µM) | 1 (≈ 1.74 µM) | 1 (≈ 1.74 µM) | 0.0625 (≈ 0.109 µM) |
| CC(=O)N1CCN(c2ccc(OCC3COC(Cn4ccnc4)(c4ccc(Cl)cc4Cl)O3)cc2)CC1 (stereo unspecified) [KETOCONAZOLE] | 0.25 (≈ 0.47 µM) | 0.0625 (≈ 0.118 µM) | 0.0156 (≈ 0.0294 µM) | 1 (≈ 1.88 µM) | 0.25 (≈ 0.47 µM) | 0.25 (≈ 0.47 µM) | 0.25 (≈ 0.47 µM) | 0.0625 (≈ 0.118 µM) |
| O=C(Nc1ccc(-c2ccc(OCC(O)(Cn3cncn3)c3ccc(F)cc3F)cc2)cn1)c1ccc(CN2CCCCC2)cc1 (stereo unspecified) | 0.0625 (≈ 0.1 µM) | 0.0625 (≈ 0.1 µM) | 1 (≈ 1.6 µM) | 4 (≈ 6.4 µM) | 0.25 (≈ 0.4 µM) | 1 (≈ 1.6 µM) | 1 (≈ 1.6 µM) | 0.0625 (≈ 0.1 µM) |
| O=C(O)c1ccc(NCc2ccc(-c3ccc(OCC(O)(Cn4cncn4)c4ccc(F)cc4F)cc3)cc2)cc1 (stereo unspecified) | 0.0156 (≈ 0.028 µM) | 0.0039 (≈ 0.00701 µM) | > 64 | 16 (≈ 28.7 µM) | 0.25 (≈ 0.449 µM) | 1 (≈ 1.8 µM) | 1 (≈ 1.8 µM) | 0.0625 (≈ 0.112 µM) |
| COc1ccc(C(=O)Nc2ccc(-c3ccc(OCC(O)(Cn4cncn4)c4ccc(F)cc4F)cc3)cn2)cc1 (stereo unspecified) | 0.0625 (≈ 0.112 µM) | 0.25 (≈ 0.448 µM) | 1 (≈ 1.79 µM) | 64 (≈ 115 µM) | 0.25 (≈ 0.448 µM) | 1 (≈ 1.79 µM) | 0.25 (≈ 0.448 µM) | 0.25 (≈ 0.448 µM) |
| OC(COc1ccc(-c2ccc(CNc3cccc(Cl)c3)cc2)cc1)(Cn1cncn1)c1ccc(F)cc1F (stereo unspecified) | 0.25 (≈ 0.457 µM) | 0.25 (≈ 0.457 µM) | > 64 | > 64 | 1 (≈ 1.83 µM) | > 64 | > 64 | 0.25 (≈ 0.457 µM) |
| CC(C)NCc1ccc(-c2ccc(OCC(O)(Cn3cncn3)c3ccc(F)cc3F)cc2)cc1 (stereo unspecified) | 1 (≈ 2.09 µM) | 0.0625 (≈ 0.131 µM) | 16 (≈ 33.4 µM) | > 64 | 0.25 (≈ 0.522 µM) | 1 (≈ 2.09 µM) | 4 (≈ 8.36 µM) | 0.0625 (≈ 0.131 µM) |
| C[C@@H]1[C@H](O)[C@@H](C)/C=C/C=C/C=C/C=C/C=C/C=C/C=C/[C@H](O[C@@H]2O[C@H](C)[C@@H](O)[C@H](N)[C@@H]2O)C[C@@H]2O[C@](O)(C[C@@H](O)C[C@@H](O)[C@H](O)CC[C@@H](O)C[C@@H](O)CC(=O)O[C@H]1C)C[C@H](O)[C@H]2C(=O)O [AMPHOTERICIN B] | 0.25 (≈ 0.271 µM) | 4 (≈ 4.33 µM) | 1 (≈ 1.08 µM) | 16 (≈ 17.3 µM) | 16 (≈ 17.3 µM) | 1 (≈ 1.08 µM) | 16 (≈ 17.3 µM) | 1 (≈ 1.08 µM) |
